From patent publication US20250154109A1, “SODIUM CHANNEL BLOCKING COMPOUNDS, DERIVATIVES THEREOF, AND METHODS OF THEIR USE” (LATIGO BIOTHERAPEUTICS, INC, priority 2022, published 2025)
pIC50: −log10 of the molar value. Like-named read-outs stand apart in the source and are kept apart here.

Molecular target: human Nav1.8 (Homo sapiens, UniProt Q9Y5Y9)
Experiment: SyncroPatch384PE assay (automated patch clamp)
Assay type: cell-based
Conditions: human Nav1.8/b3 CHO cells
Method: Compounds were tested on recombinant human Nav1.8/b3 stably transfected CHO cells using the SyncroPatch384PE system (Nanion Technologies), an automated patch clamp device. Cells were cultured at 37° C./5% CO2 in Ham's F-12 supplemented with 10% fetal bovine serum, 100 U/mL penicillin G sodium, […] streptomycin sulfate and selection antibiotics (0.01 mg/mL Blasticidin, 0.4 mg/mL Zeocin and 0.25 mg/mL Hygromycin). On the day of the recordings, cells in culture dishes were washed twice with Hank's Balanced Salt Solution (HBSS) and treated with Accutase for approximately 20 minutes. Immediately before use in the SynchroPatch384PE using an 8-hole NPC-384 chip, the cells were washed in HBSS to remove the Accutase and re-suspended in extracellular solution. All experiments were performed at ambient temperature. Intracellular solution contained (mM): CsCl, 50; CsF, 90; MgCl2, 5; EGTA, 1; HEPES, 10; pH adjusted to 7.2 with CsOH. Extracellular solution contained (mM): NaCl, 137; KCl, 4.0; CaCl2), 3.8; MgCl2, 1; HEPES, 10; Glucose, 10; pH adjusted to 7.4 with NaOH. 100 nM tetrodotoxin (TTX) was added to the extracellular solution to block endogenous TTX-sensitive sodium currents.
Compounds were tested in quadruplicate in 0.3% DMSO and 0.03% pluronic Acid. Compounds were diluted 1:3.33 in extracellular solution to create an 8-point concentration response curve. Each plate contained a historical positive control and up to ten compounds. 300 μM tetracaine and 0.3% DMSO+0.03% pluronic acid were used as high and low controls respectively.
Whole cell patch clamp recordings were conducted according to Nanion's standard procedure for SyncroPatch384PE®. Cells were held at a holding potential of −120 mV. A depolarization step to 10 mV for 30 ms was applied (P1 measurement), followed by a hyperpolarization step to −100 mV for 100 ms. An inactivation step at −35 mV for 10 sec was applied before stepping to −100 mV for 20 ms, followed by a step to 10 mV for 30 ms (P2 measurement) and then back to −100 mV for 30 ms. Sweep interval was 15 sec. Following establishment of the whole-cell configuration in extracellular solution, cells were washed in extracellular solution containing 0.3% DMSO and 0.03% pluronic acid to stabilize the baseline current. Compounds were then applied by the SynchroPatch384 PE system into each well and the current was recorded for five minutes in extracellular solution, followed by application of tetracaine to achieve full block at the end of experiment. The potency of the compounds was assessed on two read-outs, resting state block (P1 measurement) or inactivated state block (P2 measurement) to obtain IC50 values. Values were normalized to high (tetracaine) and low (DMSO+pluronic acid) controls.
Examples 1 to 219 and Examples 225 to 236 are assayed using SyncroPatch384PE assay described above.

[1] = inactivated state block (P2 measurement), read-out: P2 IC50
[2] = resting state block (P1 measurement), read-out: P1 IC50

Chain of human Nav1.8 (Q9Y5Y9 whole entry): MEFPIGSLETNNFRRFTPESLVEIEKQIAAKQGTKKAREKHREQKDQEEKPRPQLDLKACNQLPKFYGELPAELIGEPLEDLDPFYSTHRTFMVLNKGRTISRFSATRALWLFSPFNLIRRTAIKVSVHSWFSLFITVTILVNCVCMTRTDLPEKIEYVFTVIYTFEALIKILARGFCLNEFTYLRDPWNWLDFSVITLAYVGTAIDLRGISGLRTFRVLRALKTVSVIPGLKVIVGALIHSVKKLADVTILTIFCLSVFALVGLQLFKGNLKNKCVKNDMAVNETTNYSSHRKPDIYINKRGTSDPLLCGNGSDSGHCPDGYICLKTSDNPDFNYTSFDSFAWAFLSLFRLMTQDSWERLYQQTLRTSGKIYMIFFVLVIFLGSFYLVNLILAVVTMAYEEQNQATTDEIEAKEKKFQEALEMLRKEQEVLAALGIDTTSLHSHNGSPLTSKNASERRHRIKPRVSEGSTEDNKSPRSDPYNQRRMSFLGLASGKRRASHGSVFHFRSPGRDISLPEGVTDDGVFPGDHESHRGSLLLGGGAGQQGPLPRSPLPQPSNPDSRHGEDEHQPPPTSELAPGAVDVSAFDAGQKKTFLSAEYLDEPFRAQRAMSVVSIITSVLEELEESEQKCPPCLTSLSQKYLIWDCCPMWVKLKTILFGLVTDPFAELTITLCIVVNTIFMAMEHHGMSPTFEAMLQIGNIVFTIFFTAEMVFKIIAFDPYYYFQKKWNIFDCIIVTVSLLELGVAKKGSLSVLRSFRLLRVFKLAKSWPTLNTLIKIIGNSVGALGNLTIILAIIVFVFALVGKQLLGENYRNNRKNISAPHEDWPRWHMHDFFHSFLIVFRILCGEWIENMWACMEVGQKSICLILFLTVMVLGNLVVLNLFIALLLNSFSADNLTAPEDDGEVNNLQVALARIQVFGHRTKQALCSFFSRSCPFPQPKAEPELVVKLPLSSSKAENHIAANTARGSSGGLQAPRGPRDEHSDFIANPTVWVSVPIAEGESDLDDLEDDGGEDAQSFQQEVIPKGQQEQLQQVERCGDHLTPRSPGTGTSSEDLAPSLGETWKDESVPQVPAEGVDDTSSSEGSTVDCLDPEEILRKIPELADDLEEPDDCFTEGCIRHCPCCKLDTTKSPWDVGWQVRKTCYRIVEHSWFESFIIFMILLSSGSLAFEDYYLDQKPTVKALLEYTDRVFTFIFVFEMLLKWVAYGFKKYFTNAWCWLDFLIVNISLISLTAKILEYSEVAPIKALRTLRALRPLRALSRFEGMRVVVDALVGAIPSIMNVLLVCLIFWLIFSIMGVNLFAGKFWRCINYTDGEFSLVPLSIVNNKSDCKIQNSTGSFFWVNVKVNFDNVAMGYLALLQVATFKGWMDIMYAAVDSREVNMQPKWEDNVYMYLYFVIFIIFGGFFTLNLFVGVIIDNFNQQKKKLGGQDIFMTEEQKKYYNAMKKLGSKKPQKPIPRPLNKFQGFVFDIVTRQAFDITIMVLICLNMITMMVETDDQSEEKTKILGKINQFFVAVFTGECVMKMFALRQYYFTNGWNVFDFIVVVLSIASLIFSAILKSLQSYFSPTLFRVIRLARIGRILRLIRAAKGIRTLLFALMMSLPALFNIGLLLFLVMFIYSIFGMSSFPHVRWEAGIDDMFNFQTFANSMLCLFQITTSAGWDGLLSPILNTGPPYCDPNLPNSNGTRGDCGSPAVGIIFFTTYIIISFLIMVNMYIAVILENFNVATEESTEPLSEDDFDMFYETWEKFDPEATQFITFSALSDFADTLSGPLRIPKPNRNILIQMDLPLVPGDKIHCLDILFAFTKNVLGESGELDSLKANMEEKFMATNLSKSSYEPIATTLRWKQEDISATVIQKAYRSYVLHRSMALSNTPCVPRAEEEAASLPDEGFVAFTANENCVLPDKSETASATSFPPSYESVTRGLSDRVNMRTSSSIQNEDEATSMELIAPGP

SMILES | pIC50 [1] | pIC50 [2]
Cc1c(C2CC2)nnc(N2CCCC(F)(F)CC2)c1C(=O)Nc1cccc(S(C)(=N)=O)c1 (centres unmarked) [Example 22, 6-cyclopropyl-3-(4,4-difluoroazepan-1-yl)-5-methyl-N-(3-(S-methylsulfonimidoyl)phenyl)pyridazine-4-carboxamide] | < 6.70 | < 6.70
Cc1nc(N2CCC3(CC2)CC3)c(C(=O)Nc2cccc(S(C)(=N)=O)c2)cc1C(F)(F)F (centres unmarked) [Example 25, 6-Methyl-N-(3-(S-methylsulfonimidoyl)phenyl)-2-(6-azaspiro[2.5]octan-6-yl)-5-(trifluoromethyl)nicotinamide] | ≥ 8.30 | ≥ 8.30
Cc1nc(N2CCC3(CC2)CC3)c(C(=O)Nc2cccc([S@](C)(=N)=O)c2)cc1Cl [Example 26, (R)-5-Chloro-6-methyl-N-(3-(S-methylsulfonimidoyl)phenyl)-2-(6-azaspiro[2.5]octan-6-yl)nicotinamide] | ≥ 8.30 | ≥ 8.30
Cc1nc(N2CCC3(CC2)CC3)c(C(=O)Nc2cccc([S@@](C)(=N)=O)c2)cc1Cl [Example 27, (S)-5-Chloro-6-methyl-N-(3-(S-methylsulfonimidoyl)phenyl)-2-(6-azaspiro[2.5]octan-6-yl)nicotinamide] | ≥ 8.30 | ≥ 8.30
Cc1c(C(F)(F)F)nnc(N2CCCC(F)(F)CC2)c1C(=O)Nc1cccc([S@](C)(=N)=O)c1 [Example 28, (R)-3-(4,4-Difluoroazepan-1-yl)-5-methyl-N-(3-(S-methylsulfonimidoyl)phenyl)-6-(trifluoromethyl)pyridazine-4-carboxamide] | 7.30 to 8.30 | 7.30 to 8.30
Cc1c(C(F)(F)F)nnc(N2CCCC(F)(F)CC2)c1C(=O)Nc1cccc([S@@](C)(=N)=O)c1 [Example 29, (S)-3-(4,4-Difluoroazepan-1-yl)-5-methyl-N-(3-(S-methylsulfonimidoyl)phenyl)-6-(trifluoromethyl)pyridazine-4-carboxamide] | 7.30 to 8.30 | 7.30 to 8.30
C=CCCc1ccc(C(=O)Nc2cccc([S@@](C)(=N)=O)c2)c(N2CCCC(F)(F)CC2)n1 [Example 30, (S)-6-(3-Buten-1-yl)-2-(4,4-difluoroazepan-1-yl)-N-(3-(S-methylsulfonimidoyl)phenyl)nicotinamide] | ≥ 8.30 | ≥ 8.30
Cc1c(C(F)(F)F)nnc(N2CCCC(F)(F)CC2)c1C(=O)Nc1ccnnc1 [Example 31, 3-(4,4-Difluoroazepan-1-yl)-5-methyl-N-(pyridazin-4-yl)-6-(trifluoromethyl)pyridazine-4-carboxamide] | < 6.70 | < 6.70
O=C(Nc1ccnnc1)c1nnc(C(F)(F)F)cc1N1CCCC(F)(F)CC1 [Example 32, 4-(4,4-Difluoroazepan-1-yl)-N-(pyridazin-4-yl)-6-(trifluoromethyl)pyridazine-3-carboxamide] | < 6.70 | < 6.70
Cc1cc(C(F)(F)F)nc(N2CCCC(F)(F)CC2)c1C(=O)Nc1cccc([S@](C)(=N)=O)c1 [Example 33, (R)-2-(4,4-Difluoroazepan-1-yl)-4-methyl-N-(3-(S-methylsulfonimidoyl)phenyl)-6-(trifluoromethyl)nicotinamide] | ≥ 8.30 | ≥ 8.30
Cc1cc(C(F)(F)F)nc(N2CCCC(F)(F)CC2)c1C(=O)Nc1cccc([S@@](C)(=N)=O)c1 [Example 34, (S)-2-(4,4-Difluoroazepan-1-yl)-4-methyl-N-(3-(S-methylsulfonimidoyl)phenyl)-6-(trifluoromethyl)nicotinamide] | ≥ 8.30 | ≥ 8.30
C=CCCc1ccc(C(=O)Nc2cccc([S@](C)(=N)=O)c2)c(N2CCCC(F)(F)CC2)n1 [Example 35, (R)-6-(But-3-en-1-yl)-2-(4,4-difluoroazepan-1-yl)-N-(3-(S-methylsulfonimidoyl)phenyl)nicotinamide] | ≥ 8.30 | ≥ 8.30
O=C(Nc1cc[nH]c(=O)c1)c1nnc(C(F)(F)F)cc1N1CCCCCC1 [Example 36, 4-(Azepan-1-yl)-N-(2-oxo-1,2-dihydropyridin-4-yl)-6-(trifluoromethyl)pyridazine-3-carboxamide] | < 6.70 | < 6.70
CS(=O)(=O)c1cccc(NC(=O)c2nnc(C(F)(F)F)cc2N2CCCCCC2)c1 [Example 37, 4-(Azepan-1-yl)-N-(3-(methylsulfonyl)phenyl)-6-(trifluoromethyl)pyridazine-3-carboxamide] | < 6.70 | < 6.70
NC(=O)c1cccc(NC(=O)c2nnc(C(F)(F)F)cc2N2CCCC(F)(F)CC2)c1 [Example 38, N-(3-Carbamoylphenyl)-4-(4,4-difluoroazepan-1-yl)-6-(trifluoromethyl)pyridazine-3-carboxamide] | < 6.70 | < 6.70
CS(=O)(=O)c1cccc(NC(=O)c2nnc(C(F)(F)F)cc2N2CCCC(F)(F)CC2)c1 [Example 39, 4-(4,4-Difluoroazepan-1-yl)-N-(3-(methylsulfonyl)phenyl)-6-(trifluoromethyl)pyridazine-3-carboxamide] | < 6.70 | < 6.70
O=C(Nc1cc[nH]c(=O)c1)c1nnc(C(F)(F)F)cc1N1CCCC(F)(F)CC1 [Example 40, 4-(4,4-Difluoroazepan-1-yl)-N-(2-oxo-1,2-dihydropyridin-4-yl)-6-(trifluoromethyl)pyridazine-3-carboxamide] | < 6.70 | < 6.70
Cc1c(Cl)c(C(F)(F)F)nc(N2CCCC(F)(F)CC2)c1C(=O)Nc1cccc(S(C)(=N)=O)c1 (centres unmarked) [Example 41, 5-Chloro-2-(4,4-difluoroazepan-1-yl)-4-methyl-N-(3-(S-methylsulfonimidoyl)phenyl)-6-(trifluoromethyl)nicotinamide] | ≥ 8.30 | ≥ 8.30
Cc1c(-c2ccccc2)cnc(N2CCCC(F)(F)CC2)c1C(=O)Nc1cccc(S(C)(=N)=O)c1 (centres unmarked) [Example 42, 2-(4,4-Difluoroazepan-1-yl)-4-methyl-N-(3-(S-methylsulfonimidoyl)phenyl)-5-phenylnicotinamide] | ≥ 8.30 | ≥ 8.30
CNCC(=O)N=[S@](C)(=O)c1cccc(NC(=O)c2c(N3CCCC(F)(F)CC3)nnc(C(F)(F)F)c2C)c1 [Example 43, (R)-3-(4,4-difluoroazepan-1-yl)-5-methyl-N-(3-(S-methyl-N-(methylglycyl)sulfonimidoyl)phenyl)-6-(trifluoromethyl)pyridazine-4-carboxamide] | ≥ 8.30 | ≥ 8.30
CNCC(=O)N=[S@@](C)(=O)c1cccc(NC(=O)c2c(N3CCCC(F)(F)CC3)nnc(C(F)(F)F)c2C)c1 [Example 44, (S)-3-(4,4-difluoroazepan-1-yl)-5-methyl-N-(3-(S-methyl-N-(methylglycyl)sulfonimidoyl)phenyl)-6-(trifluoromethyl)pyridazine-4-carboxamide] | 7.30 to 8.30 | 7.30 to 8.30
Cc1c(-c2cnn(C)c2)cnc(N2CCCC(F)(F)CC2)c1C(=O)Nc1cccc([S@](C)(=N)=O)c1 [Example 45, (R)-2-(4,4-difluoroazepan-1-yl)-4-methyl-5-(1-methyl-1H-pyrazol-4-yl)-N-(3-(S-methylsulfonimidoyl)phenyl)nicotinamide] | 7.00 to 7.30 | 7.00 to 7.30
